Measurements as given in patent US20090270363A1, “2-Aryl- and 2-Heteroarylthiazolyl Compounds, Methods for Their Preparation and Use Thereof” (Wyeth, priority 2008, published 2009).

Tests used:
[1] = tested on: HCT116 cells (Securin+/+, securin parental, HCT116 FB); assay: Growth inhibition (sulforhodamine B, 5 days) of securin parental cells; format: cell-based; conditions: Homo sapiens, HCT-116, 120 h, SRB
Protocol: (§1) IC50 analysis was performed for selected fused bicyclic 2-aryl or 2-heteroarylthiazolyl compounds that were tested on HCT116 cells and Securin “knock out” cell lines.
(§2) Cell Culture—HCT116 and securin “knock out” cells. HCT116 and securin “knock out” cells (D8 and F3) were grown in RPMI+5% fetal bovine serum and gentamycin. They were maintained in a humidified 37° C. incubator with 5% CO2. Since the securin “knock out” cells have active chromosomal instability, cells were used at a low passage number of 2-13 passages. At or before passage 13 a new vial of cells was thawed and used for the screen. Cell seeding—HCT116 cells and securin “knock out” cells were trypsinized and suspended in RPMI+5% FBS at a density of 27,000 cells/mL. HCT116 and securin “knock out” cells were seeded separately in wells of a 96-well plate (Falcon Cat # 35-3872) at a cell density of 4000 cells per well. Cells were seeded in 150 μL of RPMI media containing 5% FBS and gentamycin. Cell seeding was performed under aseptic conditions. Cells were allowed to attach and grow overnight in a humidified 37° C. incubator.
(§3) Compound Dilution and Dispensation. A series of stock solutions, 10 mg/mL of fused bicyclic 2-aryl- or 2-heteroarylthiazolyl compounds to be tested, were brought to room temperature. The compounds were diluted 1:50 in RPMI+5% FBS (Highest concentration 200 μg/mL). The compounds were then serially diluted 1:3 across a deep-well titration plate resulting in final concentrations in the plate of 200, 66.7, 22.2, 7.4, 2.4, 0.8, 0.27, 0.091, 0.03, 0.01, and 0.0034 μg/mL with one well left without a compound. 50 μL of this dilution series was added to the 150 μL of cells to result in a final concentration of compound in with the cells of 50, 16.6, 5.5, 1.8, 0.6, 0.2, 0.068, 0.023, 0.0076, 0.0025, and 0.00084 μg/mL. The dilution and addition of compounds to the plates is performed using a Multimek 96 Robot (Beckman Coulter).
(§4) Incubation and analysis. After dosing, the cells in the 96 well plates were returned to the humidified 37° C. incubator. The compounds remained on the cells for 5 days. After 5 days, the cells were fixed to the plates with the addition of 50 μL of 50% (vol/vol) Trichloro Acetic Acid ([…]). The cells were fixed at 4° C. for 1 hour. The plates were washed 5 times in distilled water and allowed to dry. The cells were stained with 0.4% sulforhodamine B (Sigma) in 1% acetic acid. The cells were stained for 15 minutes at room temperature. The plates were then washed 3 times in 1% acetic acid. The plates were dried and the dye was solubilized in 10 mM Tris at pH 8.0. The plates were read on the Absorbence 560 setting on a Victor^2 V Model 1420 Multilabel HTS counter (Perkin Elmer).
(§5) Analysis of Results—IC50 data. Absorbence data was read off of the Victor and was converted to a percentage of the control (untreated) values. IC50 values were graphed and the point at which a 50% inhibition of the control level was determined. […] If the model was not able to determine an IC50, the IC50 was assigned to the lowest concentration that gives a 50% or greater decrease in absorbence compared to control levels. If the calculated IC50 value for a cell line exceeds the top concentration for the assay (typically 50 μg/mL), the assay was scored as >50.
(§6) Selectivity Ratio. The Selectivity Ratio is the ratio of IC50s between the parent cell line and the knock out cell line and is always a positive number and is typically an integer.

[2] = tested on: securin "knock out" cells D8 (Securin-/-); assay: Growth inhibition (sulforhodamine B, 5 days) of securin knock out cells D8; format: cell-based; conditions: for IC50: 120 h, securin knock out D8 cells, 5 days, SRB; for Selectivity Ratio D8: IC50 HCT116 / IC50 securin KO D8
Protocol: as §1, §2, §3, §4, §5, §6

[3] = tested on: securin "knock out" cells F3 (Securin-/-); assay: Growth inhibition (sulforhodamine B, 5 days) of securin knock out cells F3; format: cell-based; conditions: for IC50: 120 h, securin knock out F3 cells, 5 days, SRB; for Selectivity Ratio F3: IC50 HCT116 / IC50 securin KO F3
Protocol: as §1, §2, §3, §4, §5, §6

[4] = tested on: Xenografts of a Human Breast Carcinoma Cell Line (MDA-MB-361); assay: Tumor xenograft study versus Herceptin (Table 2); format: in vivo; conditions: 20 mg/kg/dose PO, days 1 through 20
Protocol: (§7) Selected fused bicyclic 2-aryl- or 2-heteroarylthiazolyl compounds of formula I were tested for their activity in a securin parental cell line (HCT116 FB) and a securin knockout (KO) cell line. […] The in-vivo activity of selected fused bicyclic 2-aryl- or 2-heteroarylthiazolyl compounds of formula I was studied in cells growing as xenografts in athymic (nude) mice. The effect of Examples 164, 166 and 167 was studied in xenografts of a human breast carcinoma cell line (MDA-MB-361).
(§8) In-vivo Activity in Tumor Xenografts. […] The fused bicyclic 2-arylthiazolyl compounds were formulated using 0.5% Methocel™ (methylcellulose) and 0.4% Tween 80™ (polysorbate-80 and oleic acid) and administered daily orally (PO), by gavage or by syringe. Tumor mass [(length×width^2)/2] was determined every 7 days. Inhibition of tumor growth was calculated relative to conventional (vehicle treated) controls.

[5] = tested on: Xenografts of a Human Breast Carcinoma Cell Line (MDA-MB-361); assay: Tumor xenograft study versus Vincristine (Table 3); format: in vivo; conditions: days 2 through 21
Protocol: as §7, §8
The effectiveness of Examples 164, 166 and 167 versus Vincristine at controlling tumor growth was studied and the results are summarized in Table 3 and FIG. 2.

| Compound | IC50 [1] [µM] | IC50 [2] [µM] | Selectivity Ratio D8 [2] | IC50 [3] [µM] | Selectivity Ratio F3 [3] | further results |
| --- | --- | --- | --- | --- | --- | --- |
| CN(C)c1ccc(-c2nc3c(s2)[C@@H](O)CCC3)cc1 [Example 167, (7S)-2-[4-(dimethylamino)phenyl]-4,5,6,7-tetrahydro-1,3-benzothiazol-7-ol] | 100 | 60 | 2 | 70.7 | 1 | % T/C Day 7 [4]: 46%; % T/C Day 14 [4]: 61%; % T/C Day 21 [4]: 61%; Relative Tumor Growth Day 7 [4]: 0.89; Relative Tumor Growth Day 14 [4]: 1.96; Relative Tumor Growth Day 21 [4]: 6.39; S/T = # of Survivors/# of Treated on Day +21 [4]: 5/5; % T/C Day 8 ([5]; 25 mg/kg/dose PO): 61%; % T/C Day 15 ([5]; 25 mg/kg/dose PO): 68%; % T/C Day 22 ([5]; 25 mg/kg/dose PO): 113%; Relative Tumor Growth Day 8 ([5]; 25 mg/kg/dose PO): 3.18; Relative Tumor Growth Day 15 ([5]; 25 mg/kg/dose PO): 8.38; Relative Tumor Growth Day 22 ([5]; 25 mg/kg/dose PO): 24.80; % T/C Day 8 ([5]; 50 mg/kg/dose PO): 50%; % T/C Day 15 ([5]; 50 mg/kg/dose PO): 62%; % T/C Day 22 ([5]; 50 mg/kg/dose PO): 71%; Relative Tumor Growth Day 8 ([5]; 50 mg/kg/dose PO): 2.62; Relative Tumor Growth Day 15 ([5]; 50 mg/kg/dose PO): 7.61; Relative Tumor Growth Day 22 ([5]; 50 mg/kg/dose PO): 15.56 |
| Cc1cc(N(C)C)ccc1-c1nc2c(s1)[C@H](O)CCC2 [Example 99, (7R)-2-[4-(dimethylamino)-2-methylphenyl]-4,5,6,7-tetrahydro-1,3-benzothiazol-7-ol] | ≥ 173 | 0.24 | 709 | 0.21 | 810 | – |
| CN(C)c1ccc(-c2nc3c(s2)C(O)CCC3)c(C(=O)OCc2cccs2)c1 (stereo not drawn) [Example 123, 2-thienylmethyl 5-(dimethylamino)-2-(7-hydroxy-4,5,6,7-tetrahydro-1,3-benzothiazol-2-yl)benzoate] | 90 | 1.7 | 52 | 4.4 | 20 | – |
| CN(C)c1ccc(-c2nc3c(s2)C(O)CCC3)c(C(=O)OCc2ccccn2)c1 (stereo not drawn) [Example 128, pyridin-2-ylmethyl 5-(dimethylamino)-2-(7-hydroxy-4,5,6,7-tetrahydro-1,3-benzothiazol-2-yl)benzoate] | 86.7 | 1.9 | 45 | 2.6 | 33 | – |
| Cc1cc(N(C)C)ccc1-c1nc2c(s1)C(O)CCC2 (stereo not drawn) [Example 45, 2-[4-(dimethylamino)-2-methylphenyl]-4,5,6,7-tetrahydro-1,3-benzothiazol-7-ol] | 133 | 0.54 | 245 | 1.1 | 121 | selectivity ratios (IC50 HCT116 FB/IC50 securin KO) [2]: high selectivity ratios |
| OCc1cc(N2CCCC2)ccc1-c1nc2c(s1)C(O)CCC2 (stereo not drawn) [Example 162, 2-(2-Hydroxymethyl-4-pyrrolidin-1-yl-phenyl)-4,5,6,7-tetrahydro-benzothiazol-7-ol] | 15.3 | 0.05 | 304 | 0.046 | 333 | – |
| CCCOC(=O)c1cc(N(C)C)ccc1-c1nc2c(s1)C(O)CCC2 (stereo not drawn) [Example 121, propyl 5-(dimethylamino)-2-(7-hydroxy-4,5,6,7-tetrahydro-1,3-benzothiazol-2-yl)benzoate] | 77.3 | 0.69 | 112 | 1.7 | 44 | – |
| COC(=O)c1cc(N2CCCC2)ccc1-c1nc2c(s1)C(O)CCC2 (stereo not drawn) [Example 161, 2-(7-Hydroxy-4,5,6,7-tetrahydro-benzothiazol-2-yl)-5-pyrrolidin-1-yl-benzoic acid methyl ester] | 66.3 | 0.4 | 165 | 0.52 | 128 | – |
| CC(C)OC(=O)c1cc(N(C)C)ccc1-c1nc2c(s1)C(O)CCC2 (stereo not drawn) [Example 111, isopropyl 5-(dimethylamino)-2-(7-hydroxy-4,5,6,7-tetrahydro-1,3-benzothiazol-2-yl)benzoate] | 100 | 1.3 | 75 | 1.4 | 71 | – |
| CN(C)c1cc(F)c(-c2nc3c(s2)C(O)CCC3)c(F)c1 (stereo not drawn) [Example 25, 2-[4-(dimethylamino)-2,6-difluorophenyl]-4,5,6,7-tetrahydro-1,3-benzothiazol-7-ol] | ≥ 161 | 2.6 | 62 | 6.7 | 24 | – |
| N#Cc1cc(N2CCCC2)ccc1-c1nc2c(s1)C(O)CCC2 (stereo not drawn) [Example 85, 2-(7-hydroxy-4,5,6,7-tetrahydro-1,3-benzothiazol-2-yl)-5-pyrrolidin-1-ylbenzonitrile] | 48.4 | 0.19 | 253 | 0.31 | 159 | – |
| CN(C)c1ccc(-c2nc3c(s2)C(O)CCC3)c(C(=O)OCc2ccsc2)c1 (stereo not drawn) [Example 122, 3-thienylmethyl 5-(dimethylamino)-2-(7-hydroxy-4,5,6,7-tetrahydro-1,3-benzothiazol-2-yl)benzoate] | 42.2 | 0.76 | 55 | 2.1 | 20 | – |
| CC(O)c1cc(N(C)C)ccc1-c1nc2c(s1)C(O)CCC2 (stereo not drawn) [Example 73, 2-[4-(dimethylamino)-2-(1-hydroxyethyl)phenyl]-4,5,6,7-tetrahydro-1,3-benzothiazol-7-ol] | 99.5 | 0.44 | 226 | 0.79 | 126 | – |
| C/C=C/COC(=O)c1cc(N(C)C)ccc1-c1nc2c(s1)C(O)CCC2 (stereo not drawn) [Example 130, (2E)-but-2-en-1-yl 5-(dimethylamino)-2-(7-hydroxy-4,5,6,7-tetrahydro-1,3-benzothiazol-2-yl)benzoate] | 77.6 | 2 | 38 | 2.4 | 32 | – |
